# Source: US7015309B1 (The Wistar Institute of Anatomy and Biology, priority 1999, dated 2006)
# Where two headings read alike, the source gives them in different places. Non-standard residues stand in square brackets, D forms with d. Residues, ends and D or L forms follow the SMILES beside them. No end group written: not given here. ξ: configuration not given here. Ac6c = NC1(C(=O)O)CCCCC1; ξDap = NCC(N)C(=O)O
# Experiments:
# sheep erythrocytes = test: Hemolytic activity, release of hemoglobin; settings: for Absorbence at 405 nm: one hour, 39° C.
# Method: To determine whether native and modified pyrrhocoricin peptides were toxic to mammalian cells, several peptides from Example 1 above, a positive control, and a negative control were examined for hemolytic activity. Hemolytic activity was assayed with sheep erythrocytes suspended in Alsever's solution (BioWhittaker, Walkersville, Md.), and diluted with Dulbecco's phosphate-buffered saline, pH 7.2. Thirty μL of a 1% suspension of the red blood cells was incubated with agitation at 39° C. with 30 μL of 40 to 256 μM of each of the following peptides dissolved in phosphate buffered saline for one hour and centrifuged at 1000 g for five minutes. Fifty μL of the supernatant was collected and the release of hemoglobin was detected by measuring the ultraviolet absorbences of triplicate samples of the 40 μM or 256 μM test peptides and the control peptides at 405 nm.
# [1] = In vivo toxicity control, uninfected mice; set-up: species or system mice of CD-1 strain; settings: 50 mg/kg dose, intravenous
# [2] = mouse serum, 45-minute digestion, MALDI-MS peak height
# Method: (§1) Owing to the fact that the use of diluted serum increases peptide recovery as well as retards the reaction kinetics to a manageable rate, the experiments were conducted using 25% aqueous sera.
# (§2) For serum stability studies, 10 μl of an aqueous peptide stock solution containing about 0.8 mg/ml peptide was added to 200 μl 25% aqueous pooled mouse or human serum (Sigma, St. Louis, Mo.), according to the process described in M. F. Powell et al, Pharmacol Res, 10: 1268–1273 (1993). The peptide-serum mixture was thermostated at 37° C. After 0 minutes, 45 minutes, 2 hours and 4 hours, three samples of each peptide were taken and precipitated by the addition of 40 μl 15% aqueous trichloroacetic acid. The samples were stored at 4° C. for 20 minutes and centrifuged. The peptides and some remaining serum proteins were recovered in the supernatant after the trichloroacetic acid precipitation. The supernatants were immediately frozen on dry-ice and 220 μl of each were analyzed on RP-HPLC. A mouse serum and two different batches of the same SIGMA catalog number of human sera (human 1, approximately 1 year old, and human 2, approximately 1 month old) were also used.
# (§3) The lyophilized samples were redissolved in 0.1 aqueous TFA and submitted for matrix assisted laser desorption/ionization (MALDI-MS).
# (§4) The missing residues are indicated (e.g—C2 means that the C-terminal two residues are cleaved off). […] In Table 4, the relative amounts of the degradation products are estimated based on the MALDI-MS peak heights. 0=not detected; 1=very weak (below 5000), 2=weak (5–10000), 3=medium (10–15000), 4=strong (15000-uncleaved molecular ion at 25–30000), 5=very strong (above uncleaved molecular ion).
# [3] = for Degradation product −C1, relative amount / Degradation product −C2, relative amount / Degradation product −C3, relative amount / Degradation product −C6, relative amount / Degradation product −N3, C2, relative amount / Degradation product −N3, relative amount / Degradation product −N5, C2, relative amount / Degradation product −N5, relative amount: 45-minute digestion
# Method: as §1, §2, §3, §4
# [4] = after 8 hours of digestion, all sera studied
# Method: as §1, §2, §3
# in vitro = settings: mouse, 25% aqueous pooled mouse serum
# Method: as §1, §2, §3, §4
# [5] = native glycosylated drosocin; cited from earlier work
# bacteria = settings: cited from earlier work
# [6] = within a four-hour period; cited from earlier work
# [7] = within a four-hour period; cited from earlier work; remark: listed apart in the source
# [8] = human 1 serum (approximately 1 year old)
# [9] = human 2 serum (approximately 1 month old)
compound,measurement,setting,value
"CC[C@H](C)[C@H](NC(=O)[C@@H]1CCCN1C(=O)[C@H](CCCNC(=N)N)NC(=O)[C@@H]1CCCN1C(=O)[C@@H]1CCCN1C(=O)[C@@H](NC(=O)[C@@H]1CCCN1C(=O)[C@H](CCCNC(=N)N)NC(=O)[C@@H]1CCCN1C(=O)[C@H](CC(C)C)NC(=O)[C@H](Cc1ccc(O)cc1)NC(=O)[C@H](CO)NC(=O)CNC(=O)[C@H](CCCCN)NC(=O)[C@H](CC(=O)O)NC(=O)C1(N)CCCCC1)[C@@H](C)O)C(=O)N[C@@H](Cc1ccc(O)cc1)C(=O)N[C@@H](CC(N)=O)C(=O)N[C@@H](CCCNC(=N)N)C(=O)NC(CNC(C)=O)C(N)=O (stereo partly drawn) [Peptide 21, 1-aminocyclo-hexane carboxylic acid (Chex)-Pyrrhocoricin-β-acetyl-2,3-diamino propionic amide [Dap(Ac)]] (H-[Ac6c]DKGSYLPRPTPPRPIYNR[ξDap](Ac)-NH2)",Absorbence at 405 nm,sheep erythrocytes; 40 μM peptide,0.110 ± 0.049
same,toxicity to sheep erythrocytes (in words),sheep erythrocytes; 256 μM concentration,completely non-toxic
same,Absorbence at 405 nm,sheep erythrocytes; 256 μM peptide,0.143 ± 0.006
same,toxicity of peptide alone (in words),[1],"Neither Peptides 1 nor 21 [SEQ ID NOS: 6 and 22, respectively] alone showed any toxicity"
same,"Degradation product −C1, relative amount",[2],0
same,"Degradation product −C2, relative amount",[2],2 (2=weak (5–10000))
same,"Degradation product −C3, relative amount",[2],0
same,"Degradation product −C6, relative amount",[2],0
same,"Degradation product −N3, C2, relative amount",[2],0
same,"Degradation product −N3, relative amount",[2],0
same,"Degradation product −N5, C2, relative amount",[2],0
same,"Degradation product −N5, relative amount",[2],2 (2=weak (5–10000))
same,"Degradation product −C1, relative amount",[3]; [8],0
same,"Degradation product −C2, relative amount",[3]; [8],4 (4=strong (15000-uncleaved molecular ion at 25–30000))
same,"Degradation product −C3, relative amount",[3]; [8],2 (2=weak (5–10000))
same,"Degradation product −C6, relative amount",[3]; [8],0
same,"Degradation product −N3, C2, relative amount",[3]; [8],0
same,"Degradation product −N3, relative amount",[3]; [8],0
same,"Degradation product −N5, C2, relative amount",[3]; [8],1 (1=very weak (below 5000))
same,"Degradation product −N5, relative amount",[3]; [8],2 (2=weak (5–10000))
same,"Degradation product −C1, relative amount",[3]; [9],0
same,"Degradation product −C2, relative amount",[3]; [9],4 (4=strong (15000-uncleaved molecular ion at 25–30000))
same,"Degradation product −C3, relative amount",[3]; [9],0
same,"Degradation product −C6, relative amount",[3]; [9],0
same,"Degradation product −N3, C2, relative amount",[3]; [9],0
same,"Degradation product −N3, relative amount",[3]; [9],0
same,"Degradation product −N5, C2, relative amount",[3]; [9],1 (1=very weak (below 5000))
same,"Degradation product −N5, relative amount",[3]; [9],2 (2=weak (5–10000))
same,resistance in human serum compared with Peptide 1 (in words),[3]; human serum,generally more resistant than Peptide 1
same,peptide still present (in words),[4],traces
same,remaining at 8 h,in vitro,20%
GKPRPYSPRPTSHPRPIRV [drosocin],anti-bacterial activity when injected into mice (in words),[5],no anti-bacterial activity
same,time needed to kill bacteria in vitro,bacteria,12 to 24 h
same,degradation in diluted human serum (in words),[6],completely degraded
same,degradation in diluted mouse serum (in words),[7],completely degraded
